Assays:
[1] = cytotoxicity (CC50), Table 1
[2] = tested on: CHIKV; experiment: antiviral activity (EC50), Table 1; type: cell-based; details: Chikungunya virus

Compound | CC50 [1] | EC50 [2]
CCn1nc(NC(=O)c2cc3c(cc2O)CCCCC3)cc1C [Compound 27, N-(1-ethyl-5-methyl-1H-pyrazol-3-yl)-3-hydroxy-6,7,8,9-tetrahydro-5H-benzo[7]annulene-2-carboxamide] | > 40 µM | > 40 µM
CC(C)(C)c1ccc(NC(=O)c2cc3c(cc2O)NCCCC3)cc1 [Compound 28, N-(4-(tert.-butyl)phenyl)-8-hydroxy-2,3,4,5-tetrahydro-1H-benzo[b]azepine-7-carboxamide] | > 40 µM | 1.47 µM
COc1cc2c(cc1C(=O)Nc1ccc(C(C)(C)C)cc1)CCCCN2 [Compound 29, N-(4-(tert.-butyl)phenyl)-8-methoxy-2,3,4,5-tetrahydro-1H-benzo[b]azepine-7-carboxamide] | > 40 µM | 24.4 µM
COc1cc2c(cc1C(=O)NNc1ccc(C(C)(C)C)cc1)CCCCC2 [Compound 30] | > 40 µM | > 40 µM
COc1cc2c(cc1CC(=O)Nc1ccc(C(C)(C)C)cc1)CCCCC2 [Compound 31, N-(4-(tert.-butyl)phenyl)-2-(3-methoxy-6,7,8,9-tetrahydro-5H-benzo[7]annulen-2-yl)acetamide] | > 40 µM | 30.4 µM
COc1cc2c(cc1CC(=O)N1CCC(C(C)(C)C)CC1)CCCCC2 [Compound 32, 1-(4-(tert.-butyl)piperidin-1-yl)-2-(3-methoxy-6,7,8,9-tetrahydro-5H-benzo[7]annulen-2-yl)ethan-1-one] | 17.3 µM | 12.6 µM
COc1cc2c(cc1CC(=O)N1CCC(F)(F)CC1)CCCCC2 [Compound 33, 1-(4,4-difluoropiperidin-1-yl)-2-(3-methoxy-6,7,8,9-tetrahydro-5H-benzo[7]annulen-2-yl)ethan-1-one] | > 40 µM | > 40 µM
COc1cc2c(cc1C(=O)Nc1cccnc1SC)CCCCC2 [Compound 34, 3-methoxy-N-(2-(methylthio)pyridin-3-yl)-6,7,8,9-tetrahydro-5H-benzo[7]annulene-2-carboxamide] | > 40 µM | > 40 µM
CCn1ccc(NC(=O)c2cc3c(cc2OC)CCCCC3)n1 [Compound 35, N-(1-ethyl-1H-pyrazol-3-yl)-3-methoxy-6,7,8,9-tetrahydro-5H-benzo[7]annulene-2-carboxamide] | > 40 µM | 17.4 µM
COc1nc2c(cc1C(=O)Nc1ccc(C(C)(C)C)cc1)CCCCC2 [Compound 36, N-(4-(tert.-butyl)phenyl)-2-methoxy-6,7,8,9-tetrahydro-5H-cyclohepta[b]pyridine-3-carboxamide] | > 40 µM | 1.71 µM
COc1nc2c(cc1C(=O)Nc1ccc(C(C)(C)C)cn1)CCCCC2 [Compound 37, N-(5-(tert.-butyl)pyridin-2-yl)-2-methoxy-6,7,8,9-tetrahydro-5H-cyclohepta[b]pyridine-3-carboxamide] | > 40 µM | 13.6 µM
COc1nc2c(cc1C(=O)Nc1ncc(C(C)(C)C)cn1)CCCCC2 [Compound 38, N-(5-(tert.-butyl)pyrimidin-2-yl)-2-methoxy-6,7,8,9-tetrahydro-5H-cyclohepta[b]pyridine-3-carboxamide] | > 40 µM | 19.4 µM
CCn1nc(NC(=O)c2cc3c(nc2OC)CCCCC3)cc1C [Compound 39, N-(1-ethyl-5-methyl-1H-pyrazol-3-yl)-2-methoxy-6,7,8,9-tetrahydro-5H-cyclohepta[b]pyridine-3-carboxamide] | > 40 µM | 30.7 µM
COc1nc2c(cc1C(=O)Nc1ccc(C(C)(C)C(=O)O)cc1)CCCCC2 [Compound 40, 2-(4-(2-methoxy-6,7,8,9-tetrahydro-5H-cyclohepta[b]pyridine-3-carboxamido)phenyl)-2-methylpropanoic acid] | > 40 µM | > 40 µM
